No end group written: not given here.
What was measured:
[1] = target: T1, Aβ40 (Homo sapiens, UniProt P05067); experiment: ITC, APP‐C31 binding to Aβ40; conditions: read-out: binding affinity (Kd)
T1 construct: purchased Peptide Institute, Inc. (Osaka, Japan) or Anaspec (Fremont, CA, USA)
Method: Titration experiments composed of 28 injections were conducted. The injection volume was 2 µL for the first injection to minimize effects of bubbles and 10 µL for the remaining injections. […] The initial delay was 1800 s and the reference power was 10 µcal s^−1. […] The binding isotherms after baseline correction were fitted to the one set of sites binding model incorporated in the MicroCal Origin 7.0 software.^[ [84] ^]
Figure S10. Interaction of Ab40 with APP-C31 monitored by ITC. The ITC thermogram (upper panel) and binding isotherm (lower panel) were obtained upon titration of APP-C31 into Ab40. The Kd value was calculated from three independent measurements. Conditions: [Ab40] = 30 µM; [APP-C31] = 600 µM; 20

[2] = tested on: SH‐SY5Y cells; experiment: Cell viability after microinjection
Method: (§1) Cell survival measurements were described in detail in the experimental section. […] White arrows indicate apoptotic cells microinjected with peptide samples. […] Scale bar = 100 µm.
Experiments were performed at least in triplicate.

[3] = tested on: SH‐SY5Y cells; experiment: Annexin V staining (apoptosis) after microinjection; conditions: 24 h; for Pearson's coefficient (r), annexin V / Texas Red‐labeled dextran: n = 3–5
Method: as §1
After 24 h incubation, the cells were washed with annexin‐binding buffer and stained with annexin V‐Alexa Fluor 488 for detecting apoptosis following the manufacturer's instruction (FITC Annexin V/Dead Cell Apoptosis Kit; V13241, Invitrogen). Fluorescent responses of annexin V and Texas Red‐labeled dextran were identified by a microscope with a GFP light cube [excitation at 470 (±22) nm and emission at 525 (±50) nm] and a Cy5 light cube [excitation at 628 (±40) nm and emission at 685 (±40) nm], respectively. At least five randomly selected fields per conditions were captured with a microscope. Pearson's correlation coefficient for the indication of co‐localization was calculated with the Coloc2 plugin in Fiji software.^[ [79] ^]

[4] = tested on: human neurons differentiated from H9 human embryonic stem cells; experiment: Neurite outgrowth in human neurons; type: cell-based
Method: Human neurons were differentiated from neural progenitor cells (NPCs), which are derived from human embryonic stem cells (hESCs), WA09 (also known as H9). hESCs were maintained on inactivated mouse embryonic fibroblasts (MEFs) in hESC‐media comprising DMEM/F12 (GIBCO) with MEM non‐essential amino acids (MEM NEAA; GIBCO), sodium bicarbonate (14 mM; Sigma‐Aldrich), L‐glutamine (1 mM; Sigma‐Aldrich), β‐mercaptoethanol (100 µM; Merck Millipore, Billerica, MA, USA), knockout serum replacement (20% v/v; GIBCO), and bFGF (10 ng mL^−1; R&D systems, McKinley Place, MN, USA). MEFs were collected from E13.5 CrljOri:CD1 (ICR) mice (Orientbio, Seongnam, Republic of Korea) and inactivated with 10 µg mL^−1 of mitomycin C (AG Scientific, San Diego, CA, USA) in 2 h. hESC colonies were dissociated with Collagenase IV and plated onto Petri dishes in hESC‐media to form embryoid bodies (EBs). […] The treatment was continued for a week, followed by plating onto growth factor reduced matrigel (BD biosciences)‐coated dishes in DMEM/F12 + glutamax (GIBCO) with N2 and B27 supplements (N2/B27 media) and laminin (1 mg mL^−1; GIBCO). […]
Human NPCs were differentiated into neurons for 2 d and the media was replaced by fresh media. […] The neurite of a neuron measured from the soma to the tip was analyzed using Neuron J program of Fiji software.^[ [81] ^]

[5] = tested on: Aβ in hippocampi of C57BL/6J mice; experiment: Immunohistochemistry of hippocampus after stereotaxic peptide injection, Aβ (6E10, thioflavin‐S); type: in vivo, mouse; conditions: hippocampal injection of Aβ40 (100 µM) and APP‐C31 (200 µM), 1 µL; 10 days; n = 3
[6] = tested on: Iba1‐positive microglial cells in hippocampi of C57BL/6J mice; experiment: Immunohistochemistry of hippocampus after stereotaxic peptide injection, microglia (Iba1); type: in vivo, mouse; conditions: hippocampal injection of Aβ40 (100 µM) and APP‐C31 (200 µM), 1 µL; 10 days; n = 5
Method: 15 neurons were analyzed per each condition. […] Scale bar = 100 µm. […] Scale bar = 200 µm. f) Quantification results of the 6E10‐positive area and Iba1‐positive cells, calculated based on the fluorescence signals.
All experiments were performed in accordance with approved animal protocols and guidelines established by Korea Research Institute of Bioscience and Biotechnology (KRIBB). C57BL/6J (11 weeks old; 30 g) were anesthetized by the intraperitoneal injection of tribromoethanol (320 mg kg^−1, i.p.) and positioned in a stereotaxic apparatus. […] All infusions were given using a Hamilton syringe equipped with a 26‐gauge beveled needle and attached to a Nanojet stereotaxic syringe pump (Chemyx, Inc., TX, USA). Infusions were delivered at a rate of 0.2 µL min^−1. […]
Mice were perfused with phosphate‐buffered saline (GIBCO) and 4% paraformaldehyde (PFA) solution, and then the brains were post‐fixed with 4% PFA overnight and dehydrated with 30% sucrose solution. […] Immunofluorescence staining was performed as previously described^[ [83] ^] using anti‐Aβ antibody (6E10; 1:1,000), anti‐APP antibody (Y188; 1:500), anti‐Iba1 antibody (1:1,000, Wako Life Sciences Inc., Japan), an appropriate fluorescence‐conjugated secondary antibody, and Hoechst 33 258 (1:10,000; Life Technologies, CA, USA) for counterstaining. […]

[7] = APP‐C31 (10 µM) or Aβ40 (10 µM) alone

T1 sequence (P05067 672-711): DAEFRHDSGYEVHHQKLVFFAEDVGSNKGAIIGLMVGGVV

AAVTPEERHLSKMQQNGYENPTYKFFEQMQN [APP‐C31]
Kd [1]: 150 µM | cell viability ([2]; 10 µM): 86% | cell viability ([2]; Cu(II)–Aβ40 (10 µM) with APP‐C31 (10 µM), 24 h, n = 3–5): 78% | green fluorescence of annexin V [3, 7]: did not significantly show the green fluorescence of annexin V | Pearson's coefficient (r), annexin V / Texas Red‐labeled dextran [3, 7]: ≈ 0.2 | green fluorescence of annexin V ([3]; both APP‐C31 (10 µM) and Aβ40 (10 µM)): intense green fluorescence of annexin V | Pearson's coefficient (r), annexin V / Texas Red‐labeled dextran ([3]; both APP‐C31 (10 µM) and Aβ40 (10 µM), **p < 0.01): ≈ 0.6 | averaged neurite length ([4]; Aβ40 20 µM with stoichiometric or suprastoichiometric APP‐C31, 24 h): further decreased | neurite morphology ([4]; Aβ40 20 µM with various concentrations of APP‐C31, 72 h): fragmentation of neurites | 6E10‐positive area vs Aβ40 alone [5]: significantly enhanced | number of Iba1‐positive microglial cells vs Aβ40 only [6]: 3.7 fold

Source: publication PMC10811509 (Advanced Science, 2023)
